# Tested on: 327498-153-R-J2-PDC complex spheroid growth, % test/control
# Test: Anticancer human tumor 327498-153-R-J2-PDC patient-derived uterine carcinosarcoma cell line growth inhibition [Asc]
# Details: for IC50: curve of first compound; for viability, T/C: stronger effect = lower value
# In short: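 Concentration series start at each agent's clinical Cmax, or at 10 microM when none is established, and drop in half-log steps; agents are applied alone or together to complex spheroids built with HUVEC and hMSC.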
# 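Further: spheroids exposed to compound for 7 days after 3 days of growth.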
# 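Wherever viability, T/C is given: 100% = DMSO vehicle control wells.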
structure (smiles),measurement,setting,value
C#Cc1c(F)ccc2cc(O)cc(-c3ncc4c(N5CC6CCC(C5)N6)nc(OCC56CCCN5CC(F)C6)nc4c3F)c12 (stereo not given) + CNC(C)C(=O)NC1CN(S(=O)(=O)c2cccc(S(=O)(=O)N3CCC4CCC(C(=O)NC(c5ccccc5)c5ccccc5)N4C(=O)C(NC(=O)C(C)NC)C3)c2)CCC2CCC(C(=O)NC(c3ccccc3)c3ccccc3)N2C1=O,IC50,second compound 0.01 µM,> 10000 nM
same,IC50,second compound 0.0316 µM,> 10000 nM
same,IC50,second compound 0.1 µM,> 10000 nM
same,IC50,second compound 0.316 µM,> 10000 nM
same,IC50,second compound 1 µM,> 10000 nM
same,"viability, T/C","second compound 0.01 µM, first compound 0.0316 µM",102%
same,"viability, T/C","second compound 0.01 µM, first compound 0.1 µM",97.8%
same,"viability, T/C","second compound 0.01 µM, first compound 0.316 µM",95.8%
same,"viability, T/C","second compound 0.01 µM, first compound 1 µM",88.6%
same,"viability, T/C","second compound 0.01 µM, first compound 3.16 µM",68.8%
same,"viability, T/C","second compound 0.01 µM, first compound 10 µM",53%
same,"viability, T/C","second compound 0.0316 µM, first compound 0.0316 µM",103%
same,"viability, T/C","second compound 0.0316 µM, first compound 0.1 µM",97.3%
same,"viability, T/C","second compound 0.0316 µM, first compound 0.316 µM",102%
same,"viability, T/C","second compound 0.0316 µM, first compound 1 µM",77%
same,"viability, T/C","second compound 0.0316 µM, first compound 3.16 µM",61.9%
same,"viability, T/C","second compound 0.0316 µM, first compound 10 µM",55.1%
same,"viability, T/C","second compound 0.1 µM, first compound 0.0316 µM",103%
same,"viability, T/C","second compound 0.1 µM, first compound 0.1 µM",95.4%
same,"viability, T/C","second compound 0.1 µM, first compound 0.316 µM",97.5%
same,"viability, T/C","second compound 0.1 µM, first compound 1 µM",82.8%
same,"viability, T/C","second compound 0.1 µM, first compound 3.16 µM",69.4%
same,"viability, T/C","second compound 0.1 µM, first compound 10 µM",61.9%
same,"viability, T/C","second compound 0.316 µM, first compound 0.0316 µM",106%
same,"viability, T/C","second compound 0.316 µM, first compound 0.1 µM",104%
same,"viability, T/C","second compound 0.316 µM, first compound 0.316 µM",92.4%
same,"viability, T/C","second compound 0.316 µM, first compound 1 µM",82.3%
same,"viability, T/C","second compound 0.316 µM, first compound 3.16 µM",74.5%
same,"viability, T/C","second compound 0.316 µM, first compound 10 µM",55.6%
same,"viability, T/C","second compound 1 µM, first compound 0.0316 µM",96.3%
same,"viability, T/C","second compound 1 µM, first compound 0.1 µM",96.1%
same,"viability, T/C","second compound 1 µM, first compound 0.316 µM",97%
same,"viability, T/C","second compound 1 µM, first compound 1 µM",84.9%
same,"viability, T/C","second compound 1 µM, first compound 3.16 µM",74%
same,"viability, T/C","second compound 1 µM, first compound 10 µM",67%
C=C(F)C(=O)N1CCN(c2nc(OCC3CCCN3C)nc3c2CCN(c2cccc4cccc(Cl)c24)C3)CC1CC#N (stereo not given) + CCN1C(C(=O)NC23CCC(C(=O)O)(CC2)CC3)C(c2cccc(Cl)c2F)C2(C(=O)Nc3cc(Cl)ccc32)C12CCCCC2,IC50,second compound 0.03 µM,552 nM
same,IC50,second compound 0.0949 µM,< 31.6 nM
same,IC50,second compound 0.3 µM,< 31.6 nM
same,IC50,second compound 0.949 µM,< 31.6 nM
same,IC50,second compound 3 µM,< 31.6 nM
same,"viability, T/C","second compound 0.03 µM, first compound 0.0316 µM",56.4%
same,"viability, T/C","second compound 0.03 µM, first compound 0.1 µM",55.3%
same,"viability, T/C","second compound 0.03 µM, first compound 0.316 µM",59.8%
same,"viability, T/C","second compound 0.03 µM, first compound 1 µM",42.5%
same,"viability, T/C","second compound 0.03 µM, first compound 3.16 µM",6.79%
same,"viability, T/C","second compound 0.03 µM, first compound 10 µM",0.13%
same,"viability, T/C","second compound 0.0949 µM, first compound 0.0316 µM",49.1%
same,"viability, T/C","second compound 0.0949 µM, first compound 0.1 µM",38.6%
same,"viability, T/C","second compound 0.0949 µM, first compound 0.316 µM",38.5%
same,"viability, T/C","second compound 0.0949 µM, first compound 1 µM",25.4%
same,"viability, T/C","second compound 0.0949 µM, first compound 3.16 µM",0.52%
same,"viability, T/C","second compound 0.0949 µM, first compound 10 µM",0.11%
same,"viability, T/C","second compound 0.3 µM, first compound 0.0316 µM",23.3%
same,"viability, T/C","second compound 0.3 µM, first compound 0.1 µM",18.5%
same,"viability, T/C","second compound 0.3 µM, first compound 0.316 µM",12.5%
same,"viability, T/C","second compound 0.3 µM, first compound 1 µM",10.9%
same,"viability, T/C","second compound 0.3 µM, first compound 3.16 µM",0.07%
same,"viability, T/C","second compound 0.3 µM, first compound 10 µM",0.11%
same,"viability, T/C","second compound 0.949 µM, first compound 0.0316 µM",6.62%
same,"viability, T/C","second compound 0.949 µM, first compound 0.1 µM",5.04%
same,"viability, T/C","second compound 0.949 µM, first compound 0.316 µM",5.41%
same,"viability, T/C","second compound 0.949 µM, first compound 1 µM",1.84%
same,"viability, T/C","second compound 0.949 µM, first compound 3.16 µM",0.03%
same,"viability, T/C","second compound 0.949 µM, first compound 10 µM",0.12%
same,"viability, T/C","second compound 3 µM, first compound 0.0316 µM",1.83%
same,"viability, T/C","second compound 3 µM, first compound 0.1 µM",2.77%
same,"viability, T/C","second compound 3 µM, first compound 0.316 µM",1.2%
same,"viability, T/C","second compound 3 µM, first compound 1 µM",0.65%
same,"viability, T/C","second compound 3 µM, first compound 3.16 µM",0.14%
same,"viability, T/C","second compound 3 µM, first compound 10 µM",1.2%

# Source: PubChem BioAssay AID1963424 (Molecular Pharmacology Branch, DTP, NCI, 2024)
